Test results: patent US7745437B2, “Compounds and compositions as protein kinase inhibitors” (IRM LLC, priority 2004, dated 2010)

Tests used:
Assay in all cases: Upstate KinaseProfiler radio-enzymatic filter binding assay
Assay type in all cases: biochemical
[1] = molecular target: T1, c-RAF (Homo sapiens, UniProt P04049); settings: at a concentration of 10 μM; read-out: percentage inhibition of c-RAF
T1 construct: purchased Upstate
Procedure: (§1) Compounds of the invention are assessed for their ability to inhibit individual members of the kinase panel. The compounds are tested in duplicates at a final concentration of 10 μM following this generic protocol. Note that the kinase buffer composition and the substrates vary for the different kinases included in the “Upstate KinaseProfiler™” panel. Kinase buffer (2.5 μL, 10×—containing MnCl2 when required), active kinase (0.001-0.01 Units; 2.5 μL), specific or Poly(Glu4-Tyr) peptide (5-500 μM or 0.01 mg/ml) in kinase buffer and kinase buffer (50 μM; 5 μL) are mixed in an eppendorf on ice, A Mg/ATP mix (10 μL; 67.5 (or 33.75) mM MgCl2, 450 (or 225) μM ATP and 1 μCi/μl [γ-^32P]-ATP (3000 Ci/mmol)) is added and the reaction is incubated at about 30° C. for about 10 minutes. The reaction mixture is spotted (20 μL) onto a 2 cm×2 cm P81 (phosphocellulose, for positively charged peptide substrates) or Whatman No. 1 (for Poly (Glu4-Tyr) peptide substrate) paper square. The assay squares are washed 4 times, for 5 minutes each, with 0.75% phosphoric acid and washed once with acetone for 5 minutes. The assay squares are transferred to a scintillation vial, 5 ml scintillation cocktail are added and ^32P incorporation (cpm) to the peptide substrate is quantified with a Beckman scintillation counter. Percentage inhibition is calculated for each reaction.

[2] = molecular target: T2, c-SRC (Homo sapiens, UniProt P12931); settings: at a concentration of 10 μM; read-out: percentage inhibition of c-SRC
T2 construct: purchased Upstate
Procedure: as §1

[3] = molecular target: T3, SAPK2β (Homo sapiens, UniProt Q15759); settings: at a concentration of 10 μM; read-out: percentage inhibition of SAPK2β
T3 construct: purchased Upstate
Procedure: as §1

[4] = molecular target: T4, lck (Homo sapiens, UniProt P06239); settings: at a concentration of 10 μM; read-out: percentage inhibition of lck
T4 construct: purchased Upstate
Procedure: as §1

[5] = molecular target: T5, SAPK2α (Homo sapiens, UniProt Q16539); settings: at a concentration of 10 μM; read-out: percentage inhibition of SAPK2α
T5 construct: purchased Upstate
Procedure: as §1

[6] = molecular target: T6, JNK2α2 (Homo sapiens, UniProt P45984); settings: at a concentration of 10 μM; read-out: percentage inhibition of JNK2α2
T6 construct: purchased Upstate
Procedure: as §1

[7] = molecular target: T7, wild-type Abl (Homo sapiens, UniProt P00519); settings: at a concentration of 10 μM; read-out: percentage inhibition of wild-type Abl
T7 construct: purchased Upstate
Procedure: as §1

[8] = molecular target: T8, MKK6 (Homo sapiens, UniProt P52564); settings: at a concentration of 10 μM; read-out: percentage inhibition of MKK6
T8 construct: purchased Upstate
T8 sequence (P52564 1-334): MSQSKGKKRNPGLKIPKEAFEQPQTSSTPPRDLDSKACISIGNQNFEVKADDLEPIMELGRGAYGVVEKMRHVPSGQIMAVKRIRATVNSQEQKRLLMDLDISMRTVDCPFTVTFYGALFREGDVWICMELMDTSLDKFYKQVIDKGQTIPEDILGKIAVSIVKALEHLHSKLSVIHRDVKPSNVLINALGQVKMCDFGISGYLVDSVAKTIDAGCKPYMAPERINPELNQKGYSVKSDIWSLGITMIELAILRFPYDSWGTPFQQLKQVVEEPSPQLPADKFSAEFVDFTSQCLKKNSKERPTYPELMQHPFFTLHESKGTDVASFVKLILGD
Procedure: as §1

[9] = molecular target: T9, Tie2 (Homo sapiens, UniProt Q02763); settings: at a concentration of 10 μM; read-out: percentage inhibition of Tie2
T9 construct: purchased Upstate
Procedure: as §1

[10] = molecular target: T10, TrkB (Homo sapiens, UniProt Q16620); settings: at a concentration of 10 μM; read-out: percentage inhibition of TrkB
T10 construct: purchased Upstate
Procedure: as §1

[11] = molecular target: T11, PDGFRα (Homo sapiens, UniProt P16234); settings: at a concentration of 10 μM; read-out: percentage inhibition of PDGFRα
T11 construct: purchased Upstate
Procedure: as §1

Measured: inhibition at 10 µM

T7 sequence (P00519 whole entry, species assumed): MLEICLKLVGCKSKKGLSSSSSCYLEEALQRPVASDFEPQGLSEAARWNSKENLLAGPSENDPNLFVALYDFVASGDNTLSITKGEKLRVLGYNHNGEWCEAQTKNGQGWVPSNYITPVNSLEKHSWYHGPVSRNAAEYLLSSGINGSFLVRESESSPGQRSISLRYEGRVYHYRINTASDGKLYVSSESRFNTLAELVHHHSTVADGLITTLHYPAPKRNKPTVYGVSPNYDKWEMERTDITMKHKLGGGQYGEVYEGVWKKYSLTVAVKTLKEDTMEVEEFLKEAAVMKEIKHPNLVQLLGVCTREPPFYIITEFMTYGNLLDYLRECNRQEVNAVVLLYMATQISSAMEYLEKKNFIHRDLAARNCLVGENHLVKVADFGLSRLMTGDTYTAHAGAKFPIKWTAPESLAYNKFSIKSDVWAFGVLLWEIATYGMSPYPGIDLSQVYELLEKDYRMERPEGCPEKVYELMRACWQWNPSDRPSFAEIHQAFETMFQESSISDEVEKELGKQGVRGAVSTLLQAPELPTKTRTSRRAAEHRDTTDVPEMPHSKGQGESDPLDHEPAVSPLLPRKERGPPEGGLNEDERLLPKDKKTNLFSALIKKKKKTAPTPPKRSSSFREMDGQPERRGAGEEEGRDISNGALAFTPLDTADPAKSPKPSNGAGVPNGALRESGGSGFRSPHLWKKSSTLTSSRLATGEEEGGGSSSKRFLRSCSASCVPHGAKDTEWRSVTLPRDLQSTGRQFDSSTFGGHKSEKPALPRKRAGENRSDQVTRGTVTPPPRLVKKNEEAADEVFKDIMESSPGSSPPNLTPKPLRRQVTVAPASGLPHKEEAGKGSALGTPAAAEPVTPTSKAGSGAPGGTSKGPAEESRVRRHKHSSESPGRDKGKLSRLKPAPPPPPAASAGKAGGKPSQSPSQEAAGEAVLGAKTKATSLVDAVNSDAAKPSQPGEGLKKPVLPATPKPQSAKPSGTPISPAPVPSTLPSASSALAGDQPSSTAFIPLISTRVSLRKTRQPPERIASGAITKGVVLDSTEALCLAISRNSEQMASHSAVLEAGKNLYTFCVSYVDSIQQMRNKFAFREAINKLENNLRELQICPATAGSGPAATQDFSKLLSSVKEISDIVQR
T9 sequence (Q02763 23-1124): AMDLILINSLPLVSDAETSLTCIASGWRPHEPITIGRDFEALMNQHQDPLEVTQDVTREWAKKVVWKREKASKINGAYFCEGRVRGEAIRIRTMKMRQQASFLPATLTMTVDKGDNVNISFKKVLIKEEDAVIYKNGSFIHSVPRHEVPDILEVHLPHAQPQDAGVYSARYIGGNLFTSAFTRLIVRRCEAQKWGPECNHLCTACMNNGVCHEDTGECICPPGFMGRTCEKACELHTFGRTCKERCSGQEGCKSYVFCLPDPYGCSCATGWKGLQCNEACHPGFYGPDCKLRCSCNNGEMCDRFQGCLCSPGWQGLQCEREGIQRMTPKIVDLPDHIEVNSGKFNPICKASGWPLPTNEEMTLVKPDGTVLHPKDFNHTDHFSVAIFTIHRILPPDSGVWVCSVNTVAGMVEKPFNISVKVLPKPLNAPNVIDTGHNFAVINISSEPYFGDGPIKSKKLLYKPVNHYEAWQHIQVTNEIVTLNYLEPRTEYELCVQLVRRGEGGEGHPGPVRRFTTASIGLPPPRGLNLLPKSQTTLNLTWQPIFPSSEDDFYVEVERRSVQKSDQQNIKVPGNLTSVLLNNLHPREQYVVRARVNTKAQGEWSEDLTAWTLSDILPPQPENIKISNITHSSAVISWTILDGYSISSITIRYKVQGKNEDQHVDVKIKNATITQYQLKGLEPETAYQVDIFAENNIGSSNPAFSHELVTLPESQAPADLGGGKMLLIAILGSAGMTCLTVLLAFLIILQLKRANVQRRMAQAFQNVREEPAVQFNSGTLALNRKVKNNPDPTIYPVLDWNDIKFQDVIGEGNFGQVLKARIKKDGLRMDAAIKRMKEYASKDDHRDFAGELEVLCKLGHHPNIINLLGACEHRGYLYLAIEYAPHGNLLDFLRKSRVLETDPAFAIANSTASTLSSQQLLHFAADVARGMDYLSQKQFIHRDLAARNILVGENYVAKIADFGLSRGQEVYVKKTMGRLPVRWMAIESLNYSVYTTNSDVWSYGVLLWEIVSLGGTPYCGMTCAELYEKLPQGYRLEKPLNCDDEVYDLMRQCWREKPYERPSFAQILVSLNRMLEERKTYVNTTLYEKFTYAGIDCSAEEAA
T1 sequence (P04049 whole entry): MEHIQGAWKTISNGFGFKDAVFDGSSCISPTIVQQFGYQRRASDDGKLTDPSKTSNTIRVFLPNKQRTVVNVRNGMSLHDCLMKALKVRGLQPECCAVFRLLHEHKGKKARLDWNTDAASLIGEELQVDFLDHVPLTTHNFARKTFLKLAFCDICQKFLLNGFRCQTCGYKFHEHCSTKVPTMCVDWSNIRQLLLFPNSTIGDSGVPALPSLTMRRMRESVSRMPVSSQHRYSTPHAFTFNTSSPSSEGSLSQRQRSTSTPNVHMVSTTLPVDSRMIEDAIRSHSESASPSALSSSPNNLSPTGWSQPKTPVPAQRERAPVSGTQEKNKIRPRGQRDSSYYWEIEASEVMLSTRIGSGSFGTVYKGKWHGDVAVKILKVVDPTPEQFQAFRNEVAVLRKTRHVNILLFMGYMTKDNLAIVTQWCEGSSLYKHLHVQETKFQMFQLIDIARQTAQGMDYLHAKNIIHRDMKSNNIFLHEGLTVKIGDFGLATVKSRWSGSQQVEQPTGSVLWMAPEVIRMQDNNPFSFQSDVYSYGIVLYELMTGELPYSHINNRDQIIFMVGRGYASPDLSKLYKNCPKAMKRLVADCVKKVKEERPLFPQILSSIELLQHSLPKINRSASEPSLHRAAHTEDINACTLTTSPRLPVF
T3 sequence (Q15759 whole entry): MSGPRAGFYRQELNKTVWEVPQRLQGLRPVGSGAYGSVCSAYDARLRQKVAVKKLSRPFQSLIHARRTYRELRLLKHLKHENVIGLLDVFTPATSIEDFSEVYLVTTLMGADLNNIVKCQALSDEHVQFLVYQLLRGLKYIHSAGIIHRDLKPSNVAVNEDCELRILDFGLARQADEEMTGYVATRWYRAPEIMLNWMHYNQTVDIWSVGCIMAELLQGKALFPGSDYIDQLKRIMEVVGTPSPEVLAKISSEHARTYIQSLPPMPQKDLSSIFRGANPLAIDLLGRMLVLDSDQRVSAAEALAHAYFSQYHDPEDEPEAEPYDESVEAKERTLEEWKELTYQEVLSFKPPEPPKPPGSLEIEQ
T4 sequence (P06239 whole entry): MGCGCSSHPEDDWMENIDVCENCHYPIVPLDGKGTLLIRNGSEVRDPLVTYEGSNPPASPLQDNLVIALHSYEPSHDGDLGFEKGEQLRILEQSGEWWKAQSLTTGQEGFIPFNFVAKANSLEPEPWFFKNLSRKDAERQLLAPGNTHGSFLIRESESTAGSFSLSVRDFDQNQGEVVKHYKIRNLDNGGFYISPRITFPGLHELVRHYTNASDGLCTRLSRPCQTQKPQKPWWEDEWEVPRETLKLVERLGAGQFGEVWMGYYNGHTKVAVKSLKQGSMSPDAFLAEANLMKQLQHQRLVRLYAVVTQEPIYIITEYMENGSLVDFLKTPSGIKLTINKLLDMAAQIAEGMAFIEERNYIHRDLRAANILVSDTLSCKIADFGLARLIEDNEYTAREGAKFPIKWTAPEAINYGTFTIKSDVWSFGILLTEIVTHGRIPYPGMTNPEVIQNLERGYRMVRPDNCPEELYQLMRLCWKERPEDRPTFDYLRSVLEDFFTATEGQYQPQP
T6 sequence (P45984 whole entry): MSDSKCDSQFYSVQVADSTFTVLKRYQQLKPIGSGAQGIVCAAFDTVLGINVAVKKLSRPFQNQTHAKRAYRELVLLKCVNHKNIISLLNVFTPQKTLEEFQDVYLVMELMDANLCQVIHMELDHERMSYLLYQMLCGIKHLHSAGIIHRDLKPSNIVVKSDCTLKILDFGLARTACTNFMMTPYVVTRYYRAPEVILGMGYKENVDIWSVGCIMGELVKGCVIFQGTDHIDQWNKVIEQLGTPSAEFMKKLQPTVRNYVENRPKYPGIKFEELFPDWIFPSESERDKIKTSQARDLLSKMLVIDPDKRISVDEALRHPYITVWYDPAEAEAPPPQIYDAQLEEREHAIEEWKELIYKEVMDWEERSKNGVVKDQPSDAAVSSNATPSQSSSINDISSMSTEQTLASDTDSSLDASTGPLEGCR
T2 sequence (P12931 whole entry): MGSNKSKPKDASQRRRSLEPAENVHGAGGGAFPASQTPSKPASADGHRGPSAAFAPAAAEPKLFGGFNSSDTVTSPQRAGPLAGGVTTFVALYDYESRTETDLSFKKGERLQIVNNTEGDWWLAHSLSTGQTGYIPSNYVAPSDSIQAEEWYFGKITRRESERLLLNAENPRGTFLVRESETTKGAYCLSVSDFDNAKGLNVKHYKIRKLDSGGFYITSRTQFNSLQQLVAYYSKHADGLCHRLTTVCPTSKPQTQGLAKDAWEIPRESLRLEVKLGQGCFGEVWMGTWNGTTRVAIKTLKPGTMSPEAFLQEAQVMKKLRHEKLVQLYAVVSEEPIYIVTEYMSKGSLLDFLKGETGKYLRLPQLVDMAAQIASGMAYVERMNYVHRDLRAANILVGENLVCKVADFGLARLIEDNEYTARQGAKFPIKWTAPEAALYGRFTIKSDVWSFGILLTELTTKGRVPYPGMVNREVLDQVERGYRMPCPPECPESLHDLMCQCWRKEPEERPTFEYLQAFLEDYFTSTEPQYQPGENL

Cc1ccc(NC(=O)c2cccc(C(F)(F)F)c2)cc1Nc1nccn1-c1cc(NCCN2CCOCC2)ncn1 [Compound 3, N-(4-Methyl-3-{1-[6-(2-morpholin-4-yl-ethylamino)-pyrimidin-4-yl]-1H-imidazol-2-ylamino}-phenyl)-3-trifluoromethyl-benzamide]
99%: [2] | [9]
97%: [6] | [7] | [10] | [11]
100%: all other assays above
